# Laboratory results reported in ChEMBL document CHEMBL1143916, “Inhibition of 3(17)alpha-hydroxysteroid dehydrogenase (AKR1C21) by aldose reductase inhibitors” (Bioorg Med Chem, 2008).
# Legend:
# [1] = biological target: T1, Aldo-keto reductase family 1 member C21 (Mus musculus) (UniProt Q91WR5); experiment: Inhibition of mouse recombinant AKR1C21 at 12 uM
# T1 sequence (whole entry): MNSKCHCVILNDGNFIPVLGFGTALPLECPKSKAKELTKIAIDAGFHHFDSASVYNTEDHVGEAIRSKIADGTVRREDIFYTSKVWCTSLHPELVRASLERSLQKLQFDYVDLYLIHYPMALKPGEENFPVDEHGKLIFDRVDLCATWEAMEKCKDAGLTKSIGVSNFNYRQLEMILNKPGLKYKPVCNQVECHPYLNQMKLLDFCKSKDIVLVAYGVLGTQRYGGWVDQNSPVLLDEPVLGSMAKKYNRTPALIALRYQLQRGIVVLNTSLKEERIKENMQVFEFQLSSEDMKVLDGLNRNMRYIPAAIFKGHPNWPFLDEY
# [2] = biological target: Aldo-keto reductase family 1 member B1 (Homo sapiens, UniProt P15121); experiment: Inhibition of human recombinant aldose reductase
# [3] = biological target: T2, Aldo-keto reductase family 1 member C21 (Mus musculus, UniProt Q91WR5); experiment: Inhibition of mouse recombinant AKR1C21
# T2 sequence (Q91WR5 whole entry): T1 sequence (whole entry)
Structure (SMILES),inhibition [1] [%],IC50 [2] [µM],IC50 [3] [µM],Ki [3] [µM]
O=c1cc(-c2ccccc2)oc2cc(O)cc(O)c12 [CHRYSIN],36,8.5,–,–
O=C1CC2(C(=O)N1)C(=O)N(Cc1ccc(Br)cc1F)C(=O)c1ccc(F)cc12 (configuration not stated),–,–,27.5,10.4
O=c1c(O)c(-c2cc(O)c(O)c(O)c2)oc2cc(O)cc(O)c12 [MYRICETIN],–,29,12.3,–
O=c1c(O)c(-c2ccc(O)c(O)c2)oc2cc(O)cc(O)c12 [QUERCETIN],–,–,6.9,11
C[C@@H]1O[C@@H](Oc2c(-c3ccc(O)c(O)c3)oc3cc(O)cc(O)c3c2=O)[C@H](O)[C@H](O)[C@H]1O [QUERCITRIN],–,–,33.3,–
O=C(O)Cc1nn(Cc2nc3cc(C(F)(F)F)ccc3s2)c(=O)c2ccccc12 [ZOPOLRESTAT],–,–,158,–
COc1ccc2c(C(=S)N(C)CC(=O)O)cccc2c1C(F)(F)F [TOLRESTAT],–,–,48,22
